Experimental data as given in patent US8309577B2, “Quinuclidine compounds as α-7 nicotinic acetylcholine receptor ligands” (Bristol-Myers Squibb Company, priority 2008, dated 2012).

target: T1, α-7 nicotinic acetylcholine receptor channel expressed in HEK 293 cells (Rattus norvegicus, UniProt Q05941); test: Ca2+-sensitive fluorescence-based FLIPR assay, α7 nicotinic ACh receptor channel function (agonist); assay type: cell-based; conditions: FLIPR α7 (EC50, nM), Table 1; HEK 293 cells, agonist Ca2+ flux
T1 construct: expressed in transfected cells
Outline: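 Potency and efficacy derived from kinetic FLIPR Ca²⁺-flux fluorescence, recorded 3 min after compound addition in Hanks buffer following a 10 s baseline.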

T1 sequence (Q05941 23-502): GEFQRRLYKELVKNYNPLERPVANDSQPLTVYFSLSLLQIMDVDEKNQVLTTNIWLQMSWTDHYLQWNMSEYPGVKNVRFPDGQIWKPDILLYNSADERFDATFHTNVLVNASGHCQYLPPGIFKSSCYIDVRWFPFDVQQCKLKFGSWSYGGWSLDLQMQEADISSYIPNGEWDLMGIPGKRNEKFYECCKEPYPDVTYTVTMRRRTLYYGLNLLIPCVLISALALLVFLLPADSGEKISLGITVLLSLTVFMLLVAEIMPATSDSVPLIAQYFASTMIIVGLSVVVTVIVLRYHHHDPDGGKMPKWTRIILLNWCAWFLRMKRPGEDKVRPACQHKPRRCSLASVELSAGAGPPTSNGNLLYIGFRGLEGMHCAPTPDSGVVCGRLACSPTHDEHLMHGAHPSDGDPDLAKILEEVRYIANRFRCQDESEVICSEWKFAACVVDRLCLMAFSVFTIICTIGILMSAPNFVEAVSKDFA

Structure (SMILES) | EC50 [nM]
CC(C)(C)c1csc(NC2=NCC3(CN4CCC3CC4)O2)n1 (centres unmarked) [Example 110] | 450
COc1ccn2nc(NC3=NC[C@@]4(CN5CCC4CC5)O3)nc2c1 [Example 125] | 17
c1ccc2nc(NC3=NC[C@@]4(CN5CCC4CC5)O3)ccc2c1 [Example 139] | 16
Fc1cccc2[nH]nc(NC3=NC[C@@]4(CN5CCC4CC5)O3)c12 [Example 158] | 135
c1ccc2c(NC3=NC[C@@]4(CN5CCC4CC5)O3)n[nH]c2c1 [Example 165] | 13
COc1ccc(-c2ccnc(NC3=NC[C@@]4(CN5CCC4CC5)O3)n2)cc1 [Example 166] | 11
Cc1cc(Cl)cc2sc(NC3=NC[C@@]4(CN5CCC4CC5)O3)nc12 [Example 174] | 245
COc1nc(NC2=NC[C@@]3(CN4CCC3CC4)O2)ncc1Br [Example 178] | 17
Cc1nc(NC2=NC[C@@]3(CN4CCC3CC4)O2)sc1C [Example 187] | 424
Brc1cnc(NC2=NC[C@@]3(CN4CCC3CC4)O2)nc1-c1ccccc1 [Example 193] | 17
c1cncc(-c2ccnc(NC3=NC[C@@]4(CN5CCC4CC5)O3)n2)c1 [Example 194] | 18
c1ccc2c(c1)OCc1cnc(NC3=NC[C@@]4(CN5CCC4CC5)O3)nc1-2 [Example 196] | 13
Brc1ccc(NC2=NC[C@@]3(CN4CCC3CC4)O2)nc1 [Example 198] | 15
c1nc(NC2=NC[C@@]3(CN4CCC3CC4)O2)nc2c1CCC2 [Example 202] | 16

same assay, conditions: FLIPR α7 activity rating (EC50, nM), Table 1; HEK 293 cells, agonist Ca2+ flux

Structure (SMILES) | EC50 [nM]
c1ccc(Cc2cnc(NC3=NCC4(CN5CCC4CC5)O3)s2)cc1 (centres unmarked) [Example 105] | 100 to 1000
Brc1cnc(NC2=NCC3(CN4CCC3CC4)O2)cn1 (centres unmarked) [Example 107] | 100 to 1000
Cc1csc(NC2=NCC3(CN4CCC3CC4)O2)n1 (centres unmarked) [Example 109] | 100 to 1000
CC(C)(C)c1csc(NC2=NCC3(CN4CCC3CC4)O2)n1 (centres unmarked) [Example 110] | 100 to 1000
COc1ccc(C)c2nc(NC3=NCC4(CN5CCC4CC5)O3)sc12 (centres unmarked) [Example 112] | < 100
c1ccc2c(NC3=NCC4(CN5CCC4CC5)O3)n[nH]c2c1 (centres unmarked) [Example 113] | < 100
COc1ccn2nc(NC3=NC[C@@]4(CN5CCC4CC5)O3)nc2c1 [Example 125] | < 100
Clc1cncc(NC2=NC[C@@]3(CN4CCC3CC4)O2)n1 [Example 127] | 1000 to 100000
COc1ccc(-c2nc(NC3=NC[C@@]4(CN5CCC4CC5)O3)sc2C)cc1 [Example 129] | 100 to 1000
COc1nc(Br)cnc1NC1=NC[C@@]2(CN3CCC2CC3)O1 [Example 130] | 100 to 1000
Clc1cccc2[nH]nc(NC3=NC[C@@]4(CN5CCC4CC5)O3)c12 [Example 132] | 100 to 1000
Brc1ccc2c(NC3=NC[C@@]4(CN5CCC4CC5)O3)n[nH]c2c1 [Example 133] | < 100
Clc1ccc2c(NC3=NC[C@@]4(CN5CCC4CC5)O3)n[nH]c2c1 [Example 134] | < 100
COc1ccc2c(NC3=NC[C@@]4(CN5CCC4CC5)O3)n[nH]c2c1 [Example 135] | < 100
Brc1cnc(NC2=NC[C@@]3(CN4CCC3CC4)O2)cn1 [Example 136] | < 100
c1cncc(-c2ncc(NC3=NC[C@@]4(CN5CCC4CC5)O3)cn2)c1 [Example 138] | 1000 to 100000
c1ccc2nc(NC3=NC[C@@]4(CN5CCC4CC5)O3)ccc2c1 [Example 139] | < 100
Fc1ccc2nc(NC3=NC[C@@]4(CN5CCC4CC5)O3)ccc2c1 [Example 140] | 100 to 1000
c1csc(-c2cc(NC3=NC[C@@]4(CN5CCC4CC5)O3)n[nH]2)c1 [Example 143] | 100 to 1000
Cc1cc(C)c2c(NC3=NC[C@@]4(CN5CCC4CC5)O3)nsc2n1 [Example 145] | 1000 to 100000
c1ccc2c(NC3=NC[C@@]4(CN5CCC4CC5)O3)nccc2c1 [Example 146] | 100 to 1000
c1ccc2c(NC3=NC[C@@]4(CN5CCC4CC5)O3)ncnc2c1 [Example 147] | 100 to 1000
N#Cc1cnc(NC2=NC[C@@]3(CN4CCC3CC4)O2)cn1 [Example 148] | 1000 to 100000
COc1cc(NC2=NC[C@@]3(CN4CCC3CC4)O2)nc(OC)n1 [Example 150] | 100 to 1000
COc1ccc(-c2cnc(NC3=NC[C@@]4(CN5CCC4CC5)O3)nc2)cc1 [Example 151] | 100 to 1000

Structure (SMILES) | EC50 [nM]
c1ccc2c(c1)CCc1cnc(NC3=NC[C@@]4(CN5CCC4CC5)O3)nc1-2 [Example 153] | 100 to 1000
Brc1cc(NC2=NC[C@@]3(CN4CCC3CC4)O2)ccn1 [Example 154] | 1000 to 100000
Brc1cccc(NC2=NC[C@@]3(CN4CCC3CC4)O2)n1 [Example 155] | 100 to 1000
Cc1ccc2nc(NC3=NC[C@@]4(CN5CCC4CC5)O3)ccc2c1 [Example 157] | 100 to 1000
Fc1cccc2[nH]nc(NC3=NC[C@@]4(CN5CCC4CC5)O3)c12 [Example 158] | 100 to 1000
Fc1ccc2[nH]nc(NC3=NC[C@@]4(CN5CCC4CC5)O3)c2c1 [Example 159] | < 100
c1cc(NC2=NC[C@@]3(CN4CCC3CC4)O2)cnn1 [Example 160] | 1000 to 100000
Cc1oc2ncnc(NC3=NC[C@@]4(CN5CCC4CC5)O3)c2c1C [Example 161] | 1000 to 100000
COc1ccc(-c2cc(NC3=NC[C@@]4(CN5CCC4CC5)O3)n[nH]2)cc1 [Example 162] | 1000 to 100000
FC(F)(F)c1ccc2[nH]nc(NC3=NC[C@@]4(CN5CCC4CC5)O3)c2c1 [Example 163] | < 100
FC(F)(F)c1ccc2c(NC3=NC[C@@]4(CN5CCC4CC5)O3)n[nH]c2c1 [Example 164] | 100 to 1000
c1ccc2c(NC3=NC[C@@]4(CN5CCC4CC5)O3)n[nH]c2c1 [Example 165] | < 100
COc1ccc(-c2ccnc(NC3=NC[C@@]4(CN5CCC4CC5)O3)n2)cc1 [Example 166] | < 100
Cc1sc2ncnc(NC3=NC[C@@]4(CN5CCC4CC5)O3)c2c1C [Example 167] | 1000 to 100000
Brc1ccc2nc(NC3=NC[C@@]4(CN5CCC4CC5)O3)ncc2c1 [Example 168] | < 100
Cc1nc(NC2=NC[C@@]3(CN4CCC3CC4)O2)nc(C)c1Br [Example 171] | < 100
COc1cc(C)nc(NC2=NC[C@@]3(CN4CCC3CC4)O2)n1 [Example 172] | 100 to 1000
COc1cccc(-c2csc(NC3=NC[C@@]4(CN5CCC4CC5)O3)n2)c1 [Example 173] | 100 to 1000
Cc1cc(Cl)cc2sc(NC3=NC[C@@]4(CN5CCC4CC5)O3)nc12 [Example 174] | 100 to 1000
Cc1cc(C)nc(NC2=NC[C@@]3(CN4CCC3CC4)O2)n1 [Example 176] | 100 to 1000
c1ccc2c(c1)CCc1cnc(NC3=NC[C@@]4(CN5CCC4CC5)O3)nc1-2 [Example 177] | < 100
COc1nc(NC2=NC[C@@]3(CN4CCC3CC4)O2)ncc1Br [Example 178] | < 100
COc1ccc2nc(NC3=NC[C@@]4(CN5CCC4CC5)O3)c(C)cc2c1 [Example 179] | 100 to 1000
Cc1cc(-c2ccccc2)nc(NC2=NC[C@@]3(CN4CCC3CC4)O2)n1 [Example 180] | 100 to 1000
Cc1nnc(NC2=NC[C@@]3(CN4CCC3CC4)O2)nc1C [Example 182] | 100 to 1000

Structure (SMILES) | EC50 [nM]
FC(F)(F)Oc1ccc2[nH]nc(NC3=NC[C@@]4(CN5CCC4CC5)O3)c2c1 [Example 183] | < 100
Cc1cnc(NC2=NC[C@@]3(CN4CCC3CC4)O2)c(C)n1 [Example 186] | 100 to 1000
Cc1nc(NC2=NC[C@@]3(CN4CCC3CC4)O2)sc1C [Example 187] | 100 to 1000
c1ccc(-c2n[nH]c(NC3=NC[C@@]4(CN5CCC4CC5)O3)n2)cc1 [Example 188] | 1000 to 100000
Cc1nc(NC2=NC[C@@]3(CN4CCC3CC4)O2)sc1-c1ccccc1 [Example 189] | 100 to 1000
Cn1ccc(NC2=NC[C@@]3(CN4CCC3CC4)O2)n1 [Example 190] | 1000 to 100000
Cc1cnc(NC2=NC[C@@]3(CN4CCC3CC4)O2)nc1-c1ccccc1 [Example 191] | < 100
c1ccc(-c2ccnc(NC3=NC[C@@]4(CN5CCC4CC5)O3)n2)nc1 [Example 192] | 100 to 1000
Brc1cnc(NC2=NC[C@@]3(CN4CCC3CC4)O2)nc1-c1ccccc1 [Example 193] | < 100
c1cncc(-c2ccnc(NC3=NC[C@@]4(CN5CCC4CC5)O3)n2)c1 [Example 194] | < 100
c1ccc(-c2nc(NC3=NC[C@@]4(CN5CCC4CC5)O3)ncc2-n2cncn2)cc1 [Example 195] | 1000 to 100000
c1ccc2c(c1)OCc1cnc(NC3=NC[C@@]4(CN5CCC4CC5)O3)nc1-2 [Example 196] | < 100
Fc1ccc(NC2=NC[C@@]3(CN4CCC3CC4)O2)nc1 [Example 197] | < 100
Brc1ccc(NC2=NC[C@@]3(CN4CCC3CC4)O2)nc1 [Example 198] | < 100
COc1cc(NC2=NC[C@@]3(CN4CCC3CC4)O2)ccn1 [Example 199] | 1000 to 100000
Fc1ccc2nc(NC3=NC[C@@]4(CN5CCC4CC5)O3)sc2c1 [Example 200] | < 100
c1nc(NC2=NC[C@@]3(CN4CCC3CC4)O2)nc2c1CCCC2 [Example 201] | < 100
c1nc(NC2=NC[C@@]3(CN4CCC3CC4)O2)nc2c1CCC2 [Example 202] | < 100
Cc1nc(NC2=NC[C@@]3(CN4CCC3CC4)O2)nc(Cl)c1C [Example 203] | < 100
O=C1CCCc2nc(NC3=NC[C@@]4(CN5CCC4CC5)O3)ncc21 [Example 204] | 100 to 1000
N#Cc1ccnc(NC2=NC[C@@]3(CN4CCC3CC4)O2)c1 [Example 205] | 100 to 1000
FC(F)(F)c1cccc2c(NC3=NC[C@@]4(CN5CCC4CC5)O3)n[nH]c12 [Example 206] | 1000 to 100000
c1ccc(-c2ccc(NC3=NC[C@@]4(CN5CCC4CC5)O3)nc2)cc1 [Example 207] | 100 to 1000
COc1ccc2c(c1)nc(NC1=NC[C@@]3(CN4CCC3CC4)O1)n2C [Example 208] | 1000 to 100000
c1cc(C2CC2)nc(NC2=NC[C@@]3(CN4CCC3CC4)O2)n1 [Example 209] | < 100
